Entries after “also recorded” stand apart in the source; their conditions may differ.
Key:
[1] = tested on: γ-H2AX focus formation in U2OS cells; experiment: Ionizing radiation focus formation, γ-H2AX (immunofluorescence); format: cell-based; details: transfected U2OS cells, 10 Gy, 1 h post-irradiation
Procedure: FIG. 3. The i53 protein inhibits 53BP1. FIG. 3A-B, U2OS cells were transfected with vectors expressing i53, its 53BP1-binding deficient mutant (DM) or an empty vector (EV) control. Cells were then X-irradiated with a 10 Gy dose and processed for immunofluorescence with the indicated antibodies 1 h post-irradiation (IR). DAPI staining (not shown) was used to delineate the outline (dashed lines) of the cell nuclei. The region in the magnified inset is indicated with a square. Quantitation of the experiment is shown in panel (a) and data is indicated as the mean±s.e.m (N=3), whereas in (b) representative micrographs are shown. Arrowheads indicate Flag-positive cells. FIG. 3C, Parental or 53BP1ΔU2OS cells transfected with vectors expressing i53, the DM mutant or an empty vector (EV) control were irradiated (10 Gy) 1 h before being processed for immunofluorescence. Cell cycle stage was assessed by Cyclin A staining. The data is presented as the mean±s.e.m.; N=3. FIG. 3D, Immunoprecipitation (IP) of Flag-tagged proteins from extracts prepared from 293T cells transfected with vectors expressing Flag-i53 or the i53-DM mutant. Proteins were separated by SDS-PAGE and immunoblotted (IB) for Flag and 53BP1. […]

[2] = target: T1, NAP1L1 (Homo sapiens, UniProt P55209); experiment: Flag IP-MS of i53/i53-DM baits: prey NAP1L1; format: binding; details: 293T Flp-In/T-Rex extracts, LC-MS/MS, one column per replicate IP
T1 construct: endogenous in cells; host or cells: HEK293 Flp-In/T-REx
T1 sequence (P55209 1-391): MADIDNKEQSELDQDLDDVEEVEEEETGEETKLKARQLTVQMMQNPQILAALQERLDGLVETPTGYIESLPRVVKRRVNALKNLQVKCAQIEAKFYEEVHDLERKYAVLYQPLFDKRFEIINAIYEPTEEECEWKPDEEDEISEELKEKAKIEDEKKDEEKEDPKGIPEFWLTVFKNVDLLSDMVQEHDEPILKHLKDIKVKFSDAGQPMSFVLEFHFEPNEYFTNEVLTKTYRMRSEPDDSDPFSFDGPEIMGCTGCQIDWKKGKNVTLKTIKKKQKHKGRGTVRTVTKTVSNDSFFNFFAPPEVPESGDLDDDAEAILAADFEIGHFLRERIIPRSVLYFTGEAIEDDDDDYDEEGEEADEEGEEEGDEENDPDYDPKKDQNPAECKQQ
Procedure: Following immunoprecipitation of Flag-tagged i53 and i-53-DM from HEK293 Flp-In/T-REx cells, peptides were identified using LC-MS/MS. Proteins were digested in solution with trypsin (Sigma, T7575-1KT) and dried to completeness. For LC-MS/MS analysis, peptides were reconstituted in 5% formic acid and loaded onto a 12-15 cm fused silica column with pulled tip packed in-house with 3.5 μm Zorbax C18 (Agilent Technologies, Calif., USA).
i53 and i53-DM precipitates were analyzed using an LTQ (Thermo Scientific) coupled to an Agilent 1100 Series HPLC (Agilent Technologies). Peptides were eluted from the column using a 90 min period cycle with a linear gradient from 0% to 40% ACN in 0.1% formic acid. Tandem MS spectra were acquired in a data-dependent mode for the top 5 (LTQ) most abundant ions using collision-induced dissociation. Acquired spectra were searched against the human Refseq_V53 database using Mascot (Matrix Science).
293T Flp-In/T-Rex cell lines were generated that expressed Flag-tagged i53 or i53-DM under the control of a tetracycline-inducible promoter as previously described. Nine IP-MS experiments were analyzed (3 biological replicate IPs each for control i53- and i53-DM expressing cell lines). The interacting proteins were identified by MASCOT to identify high-confidence interactors for i53. […]

[3] = tested on: gene targeting at the LMNA locus in U2OS cells; experiment: LMNA mClover gene targeting assay (CRISPR/Cas9); format: cell-based
Procedure: FIG. 4. Activation of HR by i53. FIG. 4A, Schematic of the DR-GFP assay. FIG. 4B. U2OS DR-GFP cells were transfected with the vectors expressing i53, the DM mutant or an empty vector control (EV) along with an I-Scel expression vector. The percentage of GFP-positive cells was determined 48 h post-transfection for each condition and was normalized to the empty vector condition (mean±s.d., N=4). FIG. 4C, U2OS DR-GFP were first transfected with siRNAs targeting the 53BP1 or BRCA1 mRNAs along with a non-targeting siRNA (CTRL). 24 h post-transfection, cells were transfected with the I-SceI expression vector and the percentage of GFP-positive cells was determined 48 h post-siRNA transfection for each condition. The values were normalized to the empty vector condition and presented as the mean±s.e.m; N=4. FIG. 4D, Schematic of the gene targeting assay. FIG. 4E, Gene targeting efficiency at the LMNA locus in parental or 53BP1Δ U2OS cells following transfection with vectors expressing Flag-tagged i53 or its DM mutant or an empty vector control (EV). The DNA-PK inhibitor NU7441 was also added where indicated. 24 h post-transfection, cells were analysed for mClover fluorescence. Individual experiments are presented with the error bar representing the s.d., (N=3). FIG. 4F, Gene targeting at the LMNA locus in G 1-arrested parental (WT) or 53BP1Δ U2OS cells transfected with vectors expressing Flag-tagged i53 or its DM mutant or an empty vector control (EV). The DNA-PK inhibitor NU7441 was also added in the indicated conditions. 24 h post-transfection, cells were analysed for mClover fluorescence. Individual experiments are present with the error bar representing the s.d., (N=3).
The Lamin A (LMNA) assay to measure the frequency of introduction of the coding sequence for mClover at the 5′ end of LMNA using the CRISPR/Cas9 was performed as previously described4. Parental or 53BP1Δ U2OS cell lines were transfected with the indicated plasmids using Lipofectamine RNAiMAX (Invitrogen). 24 h later, the cells were electroporated with 2.5 μg of sgRNA plasmids and 2.5 μg of donor template using a Nucleofector (Lonza; protocol X-001). Parental or 53BP1Δ U2OS cells stably expressing CtIP-T847E mutant were transfected with an siRNA against KEAP1 and the indicated plasmids and processed as previously described.

Total peptides, NAP1L1 [2]: 4
Substance: i53: UbvG08 with C-terminal di-glycine removed and I44A mutation; genetically encoded inhibitor of 53BP1
γ-H2AX focus formation [1]: did not impact | Gene targeting at the LMNA locus in 53BP1Δ cells ([3]; 53BP1Δ U2OS cells): did not result in a further increase in gene targeting | Cas9-stimulated gene targeting at the LMNA locus in G1 ([3]; G1-arrested U2OS cells expressing CtIP-T847E, KEAP1 siRNA, compared with 53BP1 knockout): nearly as efficient as the 53BP1 knockout | Gene targeting at the LMNA locus, i53 combined with DNA-PK inhibition ([3]; i53 plus NU7441 (10 μM)): additive increase in gene targeting | Change of gene targeting at the LMNA locus (in words) ([3]; parental U2OS cells, NU7441 at 10 μM): nearly two-fold; also recorded: approached that of 53BP1-null cells | Gene targeting efficiency at the LMNA locus (mClover-positive cells) ([3]; parental U2OS cells, empty vector control 4.79% +/−0.5%): 8.58%

From patent US10808017B2, “Ubiquitin variants and uses therof as 53BP1 inhibitors” (The Governing Council of the University of Toronto, priority 2016, dated 2020)
